The values below come from patent publication US9624170B2, “4-(piperrazin-1-yl)-pyrrolidin-2-one compounds as monoacylglycerol lipase (MAGL) inhibitors” (TAKEDA PHARMACEUTICAL COMPANY LIMITED, priority 2013, dated 2017).

SMILES strings stand for the structures.

A word on the inhibition: it is the drop in the measured response relative to a control, in per cent. What is called % inhibition is the percentage by which the read-out fell short of the control. Read a high % inhibition as a strong effect.

In the first assay the target is T1, human MAGL (His-hMAGL) (Homo sapiens, UniProt Q99685).
T1 construct: made in house; host or cells: Escherichia coli BL21(DE3)
T1 sequence (Q99685 1-303): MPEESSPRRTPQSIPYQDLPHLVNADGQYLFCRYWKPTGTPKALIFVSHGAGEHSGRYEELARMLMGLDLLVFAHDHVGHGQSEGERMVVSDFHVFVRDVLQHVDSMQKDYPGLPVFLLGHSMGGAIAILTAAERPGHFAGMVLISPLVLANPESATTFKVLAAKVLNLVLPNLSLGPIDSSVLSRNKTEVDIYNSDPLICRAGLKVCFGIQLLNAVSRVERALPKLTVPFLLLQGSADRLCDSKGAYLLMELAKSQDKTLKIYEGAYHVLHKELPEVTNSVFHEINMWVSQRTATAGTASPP
In words: Measurement of MAGL inhibitory activity by mass spectrometry. The format is biochemical. The settings on record: 10 μM test compound; substrate 2-arachidonylglycerol, arachidonic acid by RapidFire-mass spectrometry. The procedure: Thereafter, to each well was added 150 μM 2-arachidonylglycerol (Tocris Bioscience) by 5 μL, and the mixture was incubated at room temperature for 10 min. Then, 2% formic acid (Wako Pure Chemical Industries, Ltd.) was added by 10 μL to discontinue the reaction. Furthermore, acetonitrile (50 μL) containing 3 μM arachidonic acid-d8 (Cayman Chemical Company) was added and the mixture was stirred. The amount of arachidonic acid in the obtained enzyme reaction mixture was calculated by measuring by RapidFire-mass spectrometry and correcting by the amount of arachidonic acid-d8. High Throughput online solid phase extraction was performed using RapidFire 300TM system (Agilent Technologies, Inc.). […] The injection needle was washed with ultrapure water (500 millisecond) and acetonitrile (500 millisecond) to minimize carry-over. […] The RapidFire300 system was controlled by RapidFire UI software version 3.6 (Agilent Technologies, Inc.). The mass spectrometry of the resultant product was performed using […] triple quadrupole mass spectrometer (AB SCIEX) equipped with an electrospray ion sauce (Turbolon SprayTM) in a negative selected reaction monitoring (SRM) mode. The conditions of SRM are shown below. The parameters of the instrument were optimized as follows: capillary temperature 600° C., ion spray voltage -4.5 kV, collision gas 8, curtain gas 15 psi, ion source gas 1 60 psi, ion source gas 2 60 psi. The mass spectrometer was controlled by AnalystTM software version 1.5.1 (AB SCIEX). The peak area integration was analyzed using RapidFire integrator software version 3.6 (Agilent Technologies, Inc.). MAGL inhibitory rate (%) was calculated according to the following calculation formula.
Regarding `O=C1COc2ccc(Nc3cccc(N4CC(N5CCN(C(=O)c6nccs6)CC5)CC4=O)c3)cc2N1` (stereo not shown) [Example 122, 6-((3-(2-oxo-4-(4-(1,3-thiazol-2-ylcarbonyl)piperazin-1-yl)pyrrolidin-1-yl)phenyl)amino)-2H-1,4-benzoxazin-3(4H)-one], the inhibition at 10 µM came out at 98%. The same measure, in the same setting: the same measure for `O=C1CCc2ccc(Nc3cccc(N4CC(N5CCN(C(=O)c6nccs6)CC5)CC4=O)c3)cc2N1` (stereo not shown) [Example 123, 7-((3-(2-oxo-4-(4-(1,3-thiazol-2-ylcarbonyl)piperazin-1-yl)pyrrolidin-1-yl)phenyl)amino)-3,4-dihydroquinolin-2(1H)-one]: 97%.

As for `CC(=O)N1CCCC(Nc2cccc(N3CC(N4CCN(C(=O)c5nccs5)CC4)CC3=O)c2)C1` (stereo not shown) [Example 126, 1-(3-((1-acetylpiperidin-3-yl)amino)phenyl)-4-(4-(1,3-thiazol-2-ylcarbonyl)piperazin-1-yl)pyrrolidin-2-one], the inhibition at 10 µM amounted to 97%. As for `CN1CC(Nc2cccc(N3CC(N4CCN(C(=O)c5nccs5)CC4)CC3=O)c2)CCC1=O` (stereo not shown) [Example 127, 1-methyl-5-((3-(2-oxo-4-(4-(1,3-thiazol-2-ylcarbonyl)piperazin-1-yl)pyrrolidin-1-yl)phenyl)amino)piperidin-2-one], the inhibition at 10 µM is 99%.

As for `O=C(c1nccs1)N1CCN(C2CC(=O)N(c3ccc4c(ccn4-c4ccc(C(F)(F)F)nn4)c3)C2)CC1` (stereo not shown) [Example 128, 4-(4-(1,3-thiazol-2-ylcarbonyl)piperazin-1-yl)-1-(1-(6-(trifluoromethyl)pyridazin-3-yl)-1H-indol-5-yl)pyrrolidin-2-one], the inhibition at 10 µM is 101%. Consider `O=C(c1nccs1)N1CCN(C2CC(=O)N(c3ccc4c(ccn4-c4cnc(C(F)(F)F)cn4)c3)C2)CC1` (stereo not shown) [Example 129, 4-(4-(1,3-thiazol-2-ylcarbonyl)piperazin-1-yl)-1-(1-(5-(trifluoromethyl)pyrazin-2-yl)-1H-indol-5-yl)pyrrolidin-2-one], for which the inhibition at 10 µM is 101%. For `O=C(c1nccs1)N1CCN(C2CC(=O)N(c3cncc(-c4ccccc4)c3)C2)CC1` (stereo not shown) [Example 131, 1-(5-phenylpyridin-3-yl)-4-(4-(1,3-thiazol-2-ylcarbonyl)piperazin-1-yl)pyrrolidin-2-one], the inhibition at 10 µM was 91%.

As for `Cc1cccc(C)c1-c1cccc(N2CC(N3CCN(C(=O)c4nccs4)CC3)CC2=O)c1` (stereo not shown) [Example 132, 1-(2′,6′-dimethylbiphenyl-3-yl)-4-(4-(1,3-thiazol-2-ylcarbonyl)piperazin-1-yl)pyrrolidin-2-one], the inhibition at 10 µM was determined as 101%.

Regarding `COc1ccccc1-c1cccc(N2CC(N3CCN(C(=O)c4nccs4)CC3)CC2=O)c1` (stereo not shown) [Example 134, 1-(2′-methoxybiphenyl-3-yl)-4-(4-(1,3-thiazol-2-ylcarbonyl)piperazin-1-yl)pyrrolidin-2-one], the inhibition at 10 µM worked out at 100%.

Take `N#Cc1ccccc1-c1cccc(N2CC(N3CCN(C(=O)c4nccs4)CC3)CC2=O)c1` (stereo not shown) [Example 135, 3′-(2-oxo-4-(4-(1,3-thiazol-2-ylcarbonyl)piperazin-1-yl)pyrrolidin-1-yl)biphenyl-2-carbonitrile]: the inhibition at 10 µM amounted to 100%.

With `O=C(c1nccs1)N1CCN(C2CC(=O)N(c3cccc(-c4ccccc4F)c3)C2)CC1` (stereo not shown) [Example 136, 1-(2′-fluorobiphenyl-3-yl)-4-(4-(1,3-thiazol-2-ylcarbonyl)piperazin-1-yl)pyrrolidin-2-one], the inhibition at 10 µM worked out at 102%. Take `O=C(c1nccs1)N1CCN(C2CC(=O)N(c3cccc(-c4ccccc4C(F)(F)F)c3)C2)CC1` (stereo not shown) [Example 138, 4-(4-(1,3-thiazol-2-ylcarbonyl)piperazin-1-yl)-1-(2′-(trifluorornethyl)biphenyl-3-yl)pyrrolidin-2-one]: the inhibition at 10 µM came out at 101%.

`O=C(c1nccs1)N1CCN(C2CC(=O)N(c3cccc(-c4ccccc4)n3)C2)CC1` (stereo not shown) [Example 140, 1-(6-phenylpyridin-2-yl)-4-(4-(1,3-thiazol-2-ylcarbonyl)piperazin-1-yl)pyrrolidin-2-one]: the inhibition at 10 µM was 100%.

In the case of `O=C(c1nccs1)N1CCN(C2CC(=O)N(c3ccc4c(c3)CCN4c3ncc(C(F)(F)F)cn3)C2)CC1` (stereo not shown) [Example 141, 4-(4-(1,3-Thiazol-2-ylcarbonyl)piperazin-1-yl)-1-(1-(5-(trifluoromethyl)pyrimidin-2-yl)-2,3-dihydro-1H-indol-5-yl)pyrrolidin-2-one], the inhibition at 10 µM worked out at 98%. Still for that read-out and setting: the same measure for `CCc1ccccc1-c1cccc(N2CC(N3CCN(C(=O)c4nccs4)CC3)CC2=O)c1` (stereo not shown) [Example 142, 1-(2′-ethylbiphenyl-3-yl)-4-(4-(1,3-thiazol-2-ylcarbonyl)piperazin-1-yl)pyrrolidin-2-one]: 100%; for `Cc1cccc(-c2cccc(N3CC(N4CCN(C(=O)c5nccs5)CC4)CC3=O)c2)c1C` (stereo not shown) [Example 143, 1-(2′,3′-dirnethylbiphenyl-3-yl)-4-(4-(1,3-thiazol-2-ylcarbonyl)piperazin-1-yl)pyrrolidin-2-one]: 102%; for `Cc1ccc(C)c(-c2cccc(N3CC(N4CCN(C(=O)c5nccs5)CC4)CC3=O)c2)c1` (stereo not shown) [Example 144, 1-(2′,5′-dirnethylbiphenyl-3-yl)-4-(4-(1,3-thiazol-2-ylcarbonyl)piperazin-1-yl)pyrrolidin-2-one]: 101%. `O=C(c1nccs1)N1CCN(C2CC(=O)N(c3cccc(-c4c(F)cccc4F)c3)C2)CC1` (stereo not shown) [Example 145, 1-(2′,6′-Difluorobiphenyl-3-yl)-4-(4-(1,3-thiazol-2-ylcarbonyl)piperazin-1-yl)pyrrolidin-2-one]: the inhibition at 10 µM is 102%.

For the compound `O=C(c1nccs1)N1CCN(C2CC(=O)N(c3cccc(-c4c(Cl)cccc4Cl)c3)C2)CC1` (stereo not shown) [Example 146, 1-(2′,6′-dichlorobiphenyl-3-yl)-4-(4-(1,3-thiazol-2-ylcarbonyl)piperazin-1-yl)pyrrolidin-2-one], the inhibition at 10 µM was 100%. The same measure, in the same setting: under `O=C(c1nccs1)N1CCN(C2CC(=O)N(c3cccc(OC(F)(F)F)c3)C2)CC1` (stereo not shown) [Example 148, 4-(4-(1,3-thiazol-2-ylcarbonyl)piperazin-1-yl)-1-(3-(trifluoromethoxy)phenyl)pyrrolidin-2-one] stands 95%; under `Cc1ccc(-c2cccc(N3CC(N4CCN(C(=O)c5nccs5)CC4)CC3=O)c2)nc1` (stereo not shown) [Example 149, 1-(3-(5-Methylpyridin-2-yl)phenyl)-4-(4-(1,3-thiazol-2-ylcarbonyl)piperazin-1-yl)pyrrolidin-2-one], 96%; under `Cc1cccc(-c2cccc(N3CC(N4CCN(C(=O)c5nccs5)CC4)CC3=O)c2)n1` (stereo not shown) [Example 150, 1-(3-(6-Methylpyridin-2-yl)phenyl)-4-(4-(1,3-thiazol-2-ylcarbonyl)piperazin-1-yl)pyrrolidin-2-one], 96%. Still for that read-out and setting: the same measure for `O=C(c1nccs1)N1CCN(C2CC(=O)N(c3cccc(-c4ncccc4Cl)c3)C2)CC1` (stereo not shown) [Example 151, 1-(3-(3-chloropyridin-2-yl)phenyl)-4-(4-(1,3-thiazol-2-ylcarbonyl)piperazin-1-yl)pyrrolidin-2-one]: 99%.

In the case of `Cc1ccnc(-c2cccc(N3CC(N4CCN(C(=O)c5nccs5)CC4)CC3=O)c2)c1` (stereo not shown) [Example 152, 1-(3-(4-rnethylpyridin-2-yl)phenyl)-4-(4-(1,3-thiazol-2-ylcarbonyl)piperazin-1-yl)pyrrolidin-2-one], the inhibition at 10 µM came to 99%.

For `Cc1cccc(C#N)c1-c1cccc(N2CC(N3CCN(C(=O)c4nccs4)CC3)CC2=O)c1` (stereo not shown) [Example 154, 6-methyl-3′-(2-oxo-4-(4-(1,3-thiazol-2-ylcarbonyl)piperazin-1-yl)pyrrolidin-1-yl)biphenyl-2-carbonitrile], the inhibition at 10 µM is 101%.

`Cc1noc(C)c1-c1cccc(N2CC(N3CCN(C(=O)c4nccs4)CC3)CC2=O)c1` (stereo not shown) [Example 155, 1-(3-(3,5-dimethyl-1,2-oxazol-4-yl)phenyl)-4-(4-(1,3-thiazol-2-ylcarbonyl)piperazin-1-yl)pyrrolidin-2-one]: the inhibition at 10 µM was 99%.

With `CCn1nccc1-c1cccc(N2CC(N3CCN(C(=O)c4nccs4)CC3)CC2=O)c1` (stereo not shown) [Example 156, 1-(3-(1-ethyl-1H-pyrazol-5-yl)phenyl)-4-(4-(1,3-thiazol-2-ylcarbonyl)piperazin-1-yl)pyrrolidin-2-one], the inhibition at 10 µM amounted to 100%.

Staying with this assay, now noted: 10 μM test compound; substrate 2-arachidonylglycerol, arachidonic acid by RapidFire-mass spectrometry; 10 µM.
Consider `Cc1cccc(-c2cccc(N3CC(N4CCN(C(=O)c5nccs5)CC4)CC3=O)c2)n1` (stereo not shown) [Example 150, 1-(3-(6-Methylpyridin-2-yl)phenyl)-4-(4-(1,3-thiazol-2-ylcarbonyl)piperazin-1-yl)pyrrolidin-2-one], for which the “% inhibition at 10 μM” value was 83%.
